Measurements taken from patent US10030016B2 (Sunesis Pharmaceuticals, Inc., priority 2009, dated 2018).
Where two headings read alike, the source gives them in different places.

Assays:
PDK1 = PDK1 (Homo sapiens (Human), UniProt O15530); experiment: PDK1 kinase assay (coupled PDK1/AKT/FAM-crosstide assay, IMAP fluorescence polarization); assay type: biochemical; conditions: inhibition of PDK1 in vitro
Summary of the method: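 GST-tagged PDK1 (aa 51-359, 0.75 nM) was coupled to unphosphorylated GST-AKT2 140-467-PIFtide (10 nM) and 100 nM FAM-crosstide at 40 μM ATP, in Tris pH 7.2 buffer, for 30 min at 25 °C. Crosstide phosphorylation was read by IMAP fluorescence polarization (ΔmP) and fitted with a 4-parameter curve.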

[1] = test system: phospho-akt (Thr308) in PC-3 cells; experiment: Inhibition of phospho-akt (Thr308) in PC-3 cells, MSD phospho-akt 308 ELISA kit; assay type: cell-based; conditions: inhibition of P308 Akt in PC-3 cells using MSD, 2 hours, no serum, read-out: EC50
Summary of the method: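 PC-3 cells (15,000/well, overnight in 10% FBS medium) treated 2 h with three-fold diluted compounds in serum-free medium; DMSO high and 5 μM wortmannin low controls. Lysates captured on BSA-blocked MSD plates overnight at 4 °C, then 1 h antibody detection at RT; phospho-Akt Thr308 read by MSD electrochemiluminescence.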

Sequence of PDK1 (O15530 51-359): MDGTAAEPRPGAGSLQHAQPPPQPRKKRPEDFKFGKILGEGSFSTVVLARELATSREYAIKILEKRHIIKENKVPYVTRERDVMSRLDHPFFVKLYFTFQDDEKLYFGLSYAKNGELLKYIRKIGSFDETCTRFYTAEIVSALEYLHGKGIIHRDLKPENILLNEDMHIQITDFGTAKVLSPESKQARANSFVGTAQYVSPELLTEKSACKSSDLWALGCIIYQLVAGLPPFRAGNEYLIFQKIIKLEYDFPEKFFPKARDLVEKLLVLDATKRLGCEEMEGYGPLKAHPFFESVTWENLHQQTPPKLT

Row | SMILES | IC50 (PDK1) [µM] | EC50 ([1]; Homo sapiens) [µM] | EC50 [1] [µM] | EC50 ([1]; Homo sapiens, PC-3, 2 h) [µM]
1 | C[C@H](NC(=O)c1cc(C#N)cnc1NCc1ccc(-c2nn(C)c3ncnc(N)c23)cc1)c1ccc(F)cc1 [Example 98, (S)-2-(4-(4-amino-1-methyl-1H-pyrazolo[3,4-d]pyrimidin-3-yl)benzylamino)-5-cyano-N-(1-(4-fluorophenyl)ethyl)nicotinamide] | < 0.1 | 1 to 10 | – | –
2 | C[C@H](NC(=O)c1cc(C#N)cnc1NCc1ccc(-c2c[nH]c3ncnc(N)c23)cc1F)c1ccc(F)cc1 [Example 99, (S)-2-(4-(4-amino-7H-pyrrolo[2,3-d]pyrimidin-5-yl)-2-fluorobenzylamino)-5-cyano-N-(1-(4-fluorophenyl)ethyl) nicotinamide] | < 0.1 | – | < 1 | –
3 | C[C@H](NC(=O)c1cc(C#N)cnc1NCc1ccc(-c2c[nH]c3ncnc(N)c23)c(F)c1)c1ccc(F)cc1 [Example 100, (S)-2-(4-(4-amino-7H-pyrrolo[2,3-d]pyrimidin-5-yl)-3-fluorobenzylamino)-5-cyano-N-(1-(4-fluorophenyl)ethyl) nicotinamide] | < 0.1 | – | 1 to 10 | –
4 | C[C@H](NC(=O)c1cc(C#N)cnc1NCc1ccc(-c2ncnc(N)c2F)cc1)c1ccc(F)cc1 [Example 101, (S)-2-(4-(6-amino-5-fluoropyrimidin-4-yl)-benzylamino)-5-cyano-N-(1-(4-fluorophenyl)ethyl)nicotinamide] | > 5 | > 10 | – | –
5 | C[C@H](NC(=O)c1cc(C#N)cnc1NCc1ccc(-c2cnc(N)c(N)c2)cc1)c1ccc(F)cc1 [Example 102, (S)-5-cyano-2-(4-(5,6-diaminopyridin-3-yl)benzylamino)-N-(1-(4-fluorophenyl)ethyl) nicotinamide] | < 0.1 | 1 to 10 | – | –
6 | COC(=O)c1cc(-c2ccc(CNc3ncc(C#N)cc3C(=O)N[C@@H](C)c3ccc(F)cc3)cc2)cnc1N [Example 103, (S)-methyl 2-amino-5-(4-((5-cyano-3-(1-(4-fluorophenyl)ethylcarbamoyl)pyridin-2-ylamino)methyl)phenyl)nicotinate] | < 0.1 | 1 to 10 | – | –
7 | Cc1cc(-c2ccc(CNc3ncc(C#N)cc3C(=O)N[C@@H](C)c3ccc(F)cc3)cc2)cnc1N [Example 104, (S)-2-(4-(6-amino-5-methylpyridin-3-yl)benzylamino)-5-cyano-N-(1-(4-fluorophenyl)ethyl)nicotinamide] | < 0.1 | < 1 | – | –
8 | CC(=O)Nc1ccc(-c2ccc(CNc3ncc(C#N)cc3C(=O)N[C@@H](C)c3ccc(F)cc3)cc2)cn1 [Example 105, (S)-2-(4-(6-acetamido-pyridin-3-yl)benzylamino)-5-cyano-N-(1-(4-fluorophenyl)ethyl) nicotinamide] | < 0.1 | < 1 | – | –
9 | C[C@H](NC(=O)c1cc(C#N)cnc1NCc1ccc(-c2ccc(N)nc2)cc1)c1ccc(F)cc1 [Example 106, (S)-2-(4-(6-aminopyridin-3-yl)benzylamino)-5-cyano-N-(1-(4-fluorophenyl)ethyl) nicotinamide] | < 0.1 | < 1 | – | –
10 | C[C@H](NC(=O)c1cc(C#N)cnc1NCc1ccc(-c2ccnc(C#N)c2)cc1)c1ccc(F)cc1 [Example 108, (S)-5-cyano-2-(4-(2-cyanopyridin-4-yl)benzylamino)-N-(1-(4-fluorophenyl)ethyl)nicotinamide] | > 5 | > 10 | – | –
11 | CNc1ncc(-c2ccc(CNc3ncc(C#N)cc3C(=O)N[C@@H](C)c3ccc(F)cc3)cc2)cc1F [Example 109] | > 5 | > 10 | – | –
12 | C[C@H](NC(=O)c1cc(C#N)cnc1NCc1ccc(-c2cnc(N)c(F)c2)cc1)c1ccc(F)cc1 [Example 110, (S)-2-(4-(6-amino-5-fluoropyridin-3-yl)benzylamino)-5-cyano-N-(1-(4-fluorophenyl)ethyl)nicotinamide] | < 0.1 | < 1 | – | –
13 | C[C@H](NC(=O)c1cc(C#N)cnc1NCc1ccc(-c2ccc(C#N)nc2)cc1)c1ccc(F)cc1 [Example 111, (S)-5-cyano-2-(4-(6-cyanopyridin-3-yl)benzylamino)-N-(1-(4-fluorophenyl)ethyl)nicotinamide] | > 5 | > 10 | – | –
14 | COC(=O)c1ccc(-c2ccc(CNc3ncc(C#N)cc3C(=O)N[C@@H](C)c3ccc(F)cc3)cc2)cn1 [Example 112, (S)-methyl 5-(4-((5-cyano-3-(1-(4-fluorophenyl)ethyl-carbamoyl)pyridin-2-ylamino)methyl)phenyl)picolinate] | > 5 | > 10 | – | –
15 | C[C@H](NC(=O)c1cc(C#N)cnc1NCc1ccc(-c2nc3c(N)ncnc3[nH]2)cc1)c1ccc(F)cc1 [Example 113, (S)-2-(4-(6-amino-9H-purin-8-yl)benzylamino)-5-cyano-N-(1-(4-fluorophenyl)ethyl) nicotinamide] | < 0.1 | – | > 10 | –
16 | C[C@H](NC(=O)c1cc(C#N)cnc1NCc1ccc(-c2ccc(C(N)=O)nc2)cc1)c1ccc(F)cc1 [Example 114, (S)-5-(4-((5-cyano-3-(1-(4-fluorophenyl)ethylcarbamoyl)pyridin-2-ylamino)methyl)phenyl)picolinamide] | 0.1 to 1 | – | – | > 10
17 | C[C@H](NC(=O)c1cc(C#N)cnc1NCc1ccc(-c2cnc(N)c(C#N)c2)cc1)c1ccc(F)cc1 [Example 115, (S)-2-(4-(6-amino-5-cyanopyridin-3-yl)benzylamino)-5-cyano-N-(1-(4-fluorophenyl)ethyl) nicotinamide] | < 0.1 | > 10 | – | –
18 | C[C@H](NC(=O)c1cc(C#N)cnc1NCc1ccc(-c2cnc3[nH]c(=O)[nH]c3c2)cc1)c1ccc(F)cc1 [Example 116, (S)-5-cyano-N-(1-(4-fluorophenyl)ethyl)-2-(4-(2-oxo-2,3-dihydro-1H-imidazo[4,5-b]pyridin-6-yl)benzyl-amino)nicotinamide] | < 0.1 | < 1 | – | –
19 | C[C@H](NC(=O)c1cc(C#N)cnc1NCc1ccc(-c2ccnc(N)n2)cc1)c1ccc(F)cc1 [Example 117, (S)-2-(4-(2-amino-pyrimidin-4-yl)benzylamino)-5-cyano-N-(1-(4-fluorophenyl)ethyl) nicotinamide] | > 5 | 1 to 10 | – | –
20 | CCN(CC)CCNC(=O)c1cc(-c2ccc(CNc3ncc(C#N)cc3C(=O)N[C@@H](C)c3ccc(F)cc3)cc2)cnc1N [Example 118] | < 0.1 | 1 to 10 | – | –
21 | C[C@H](NC(=O)c1cc(C#N)cnc1NCc1ccc(-c2cnc(N)nc2)cc1)c1ccc(F)cc1 [Example 119, (S)-2-(4-(2-amino-pyrimidin-5-yl)benzylamino)-5-cyano-N-(1-(4-fluorophenyl)ethyl) nicotinamide] | < 0.1 | > 10 | – | –
22 | C[C@H](NC(=O)c1cc(C#N)cnc1NCc1ccc(-c2cnc(N)cn2)cc1)c1ccc(F)cc1 [Example 120, (S)-2-(4-(5-amino-pyrazin-2-yl)benzylamino)-5-cyano-N-(1-(4-fluorophenyl)ethyl) nicotinamide] | < 0.1 | < 1 | – | –
23 | Cc1cc(N)ncc1-c1ccc(CNc2ncc(C#N)cc2C(=O)N[C@@H](C)c2ccc(F)cc2)cc1 [Example 121, (S)-2-(4-(6-amino-4-methylpyridin-3-yl)benzylamino)-5-cyano-N-(1-(4-fluorophenyl)ethyl) nicotinamide] | 0.1 to 1 | > 10 | – | –
24 | C[C@H](NC(=O)c1cc(C#N)cnc1NCc1ccc(-c2cnc3[nH]nc(N)c3c2)cc1)c1ccc(F)cc1 [Example 122, (S)-2-(4-(3-amino-1H-pyrazolo[3,4-b]pyridin-5-yl)benzylamino)-5-cyano-N-(1-(4-fluorophenyl)ethyl) nicotinamide] | < 0.1 | < 1 | – | –
25 | O=C(NCc1ccc(F)c(F)c1)c1cc(C(F)(F)F)cnc1NCc1ccc(-c2cnc3[nH]c(=O)[nH]c3c2)cc1 [Example 123, N-(3,4-difluorobenzyl)-2-(4-(2-oxo-2,3-dihydro-1H-imidazo[4,5-b]pyridin-6-yl)benzylamino)-5-(trifluoromethyl) nicotinamide] | < 0.1 | < 1 | – | –
26 | Nc1cnc(-c2ccc(CNc3ncc(C(F)(F)F)cc3C(=O)NCc3ccc(F)c(F)c3)cc2)cn1 [Example 124, 2-(4-(5-aminopyrazin-2-yl)benzylamino)-N-(3,4-difluorobenzyl)-5-(trifluoromethyl) nicotinamide] | < 0.1 | < 1 | – | –
27 | C[C@H](NC(=O)c1cc(C#N)cnc1NCc1ccc(-c2cnc(Nc3ccn(C)n3)nc2)cc1)c1ccc(F)cc1 [Example 125, (S)-5-cyano-N-(1-(4-fluorophenyl)ethyl)-2-(4-(2-(1-methyl-1H-pyrazol-3-ylamino)pyrimidin-5-yl)benzylamino) nicotinamide] | < 0.1 | 1 to 10 | – | –
28 | C[C@H](NC(=O)c1cc(C#N)cnc1NCc1ccc(-c2cnc3[nH]c(=O)[nH]c3c2)cc1F)c1ccc(F)cc1 [Example 126, (S)-5-cyano-2-(2-fluoro-4-(2-oxo-2,3-dihydro-1H-imidazo[4,5-b]pyridin-6-yl)benzyl-amino)-N-(1-(4-fluorophenyl)ethyl) nicotinamide] | < 0.1 | < 1 | – | –
29 | C[C@H](NC(=O)c1cc(C#N)cnc1NCc1ccc(-c2ccc(N)nc2)cc1F)c1ccc(F)cc1 [Example 128] | < 0.1 | 1 to 10 | – | –
30 | C[C@H](NC(=O)c1cc(C#N)cnc1NCc1ccc(-c2ccc(N)nc2)c(F)c1)c1ccc(F)cc1 [Example 129, (S)-2-(4-(6-aminopyridin-3-yl)-3-fluorobenzylamino)-5-cyano-N-(1-(4-fluorophenyl)ethyl) nicotinamide] | 0.1 to 1 | 1 to 10 | – | –
